We go through three compounds from patent US5696115A, “Method for treating nicotine withdrawal” (Eli Lilly and Company, priority 1995, dated 1997).

The structures appear in SMILES notation.

The test system of data set [1] is people addicted to nicotine. Particulars: cited from earlier work.
For data set [2] the following is noted: known; cited from earlier work.
The subject of data set [3] is muscarinic cholinergic receptor. Description: pharmacological studies, muscarinic cholinergic receptor activity.
The test system of another data set is rats. Nature of the data set: in vivo observation, overdose in rats. The following applies: rats exposed to an overdose.
Another data set has as its system clinical subjects. Nature of the data set: clinical observation of pupil response. The class given is in vivo, human. Particulars: rather than the expected pupilary dilation.
Data set [4] in a line: detection of radiolabelled compound in saliva. In kind it is in vivo.

Turning to `CNC1(C)C2CCC(C2)C1(C)C` (stereo not shown) [mecamylamine], the undesirable side effects entry in data set [1] (receptor antagonist therapy) is reported as “other undesirable side effects”. Further, the “effect on tobacco consumption” value in data set [1] (receptor antagonist therapy, short term effect) is reported as “increasing tobacco consumption”.

Take `Clc1cccc(Cl)c1N=C1NCCN1` [clonidine]: the effectiveness versus placebo result in data set [1] (clonidine treatment for six weeks) was “more effective than placebo, but only for women”.

As to `Cc1cc2c(s1)Nc1ccccc1N=C2N1CCN(C)CC1` [2-methyl-4-(4-methyl-1-piperazinyl)-10H-thieno[2,3-b][1,5]benzodiazepine], in data set [2], the antipsychotic activity entry is recorded as “can provide antipsychotic activity” and the extrapyramidal symptoms result was “less likely to induce extrapyramidal symptoms”. In data set [3] (in vivo animal and clinical observations), the “muscarinic receptor subtype profile” value is “complex muscarinic receptor subtype profile”. Moreover, the “muscarinic cholinergic receptor activity” value in data set [3] (pharmacological studies) is on record as “has muscarinic cholinergic receptor activity”. Further, the salivation entry in the data set with rats is “significant salivation”. Also, the pupilary response result with clinical subjects was “pupilary constriction”. Besides, the detection in saliva result in data set [4] is “can be detected in the saliva”.
